Assay: AUC (0 to last) in C57 mouse at 10 mg/kg, po
Type: ADME, organism-based
Set-up: time 0 - last, dose 10 mg/kg, route oral
Settings: plasma
With `CCS(=O)(=O)c1cccc(Oc2cccc(-n3c(C)nc4c(Cl)cccc43)c2)c1` the AUC(0-t) was 1780 ng·h/mL.
In the case of `Cc1nc2c(C(F)(F)F)cccc2n1-c1cccc(Oc2cccc(S(=O)(=O)C(C)C)c2)c1`, the AUC(0-t) is reported as 1290 ng·h/mL.
Work on `Cc1nc2c(C(F)(F)F)cccc2n1-c1cccc(Oc2cccc(S(C)(=O)=O)c2)c1` yielded an AUC(0-t) of 12900 ng·h/mL.
For `Cc1nc2c(Cl)cccc2n1-c1cccc(Oc2cccc(S(C)(=O)=O)c2)c1`, the AUC(0-t) was 1500 ng·h/mL.
`CS(=O)(=O)c1cccc(Oc2cccc(-n3cnc4c(C(F)(F)F)cccc43)c2)c1` gave an AUC(0-t) of 12100 ng·h/mL.
Work on `CCS(=O)(=O)c1cccc(Oc2cccc(-n3c(C)nc4c(C(F)(F)F)cccc43)c2)c1` yielded an AUC(0-t) of 2940 ng·h/mL.
`CCc1nc2c(C(F)(F)F)cccc2n1-c1cccc(Oc2cccc(S(C)(=O)=O)c2)c1` showed an AUC(0-t) of 1780 ng·h/mL.
With `CS(=O)(=O)c1cccc(Oc2cccc(-n3c(C(F)(F)F)nc4c(C(F)(F)F)cccc43)c2)c1` the AUC(0-t) was 14300 ng·h/mL.

— ChEMBL document CHEMBL1153239, “1-(3-Aryloxyaryl)benzimidazole sulfones are liver X receptor agonists” (Bioorg Med Chem Lett, 2010)
